{"source": "patent US4786755A", "about": "“Diphenic acid monoamides” (Warner-Lambert Company, priority 1986, dated 1988)", "data": [{"tested_on": "Sensitized Guinea Pigs", "experiment": "Slow-Onset (nonhistamine) Bronchospasm Induced by Antigen Challenge in Sensitized Guinea Pigs (SRSPIG)", "format": "in vivo, guinea pig", "parameters": "concentration or dose not given beside the values", "details": "mepyramine pretreated, five minutes after ovalbumin", "from_the_text": "Induction and Quantitation of the Slow-Onset (nonhistamine) Bronchospasm Induced by Antigen Challenge in Sensitized Guinea Pigs (SRSPIG)\nThis guinea pig in vivo model was developed to quantitate the pulmonary effects of nonhistamine mediated, antigen-induced anaphylaxis. Mepyramine pretreatment is used to block the effects of histamine to permit quantitation of the effects of other biologically active mediators. The method is designed to detect drugs which inhibit the release or synthesis \"other\" mediators, such as leukotriene, thromboxane, etc., or drugs blocking the end organ effects of these mediators. When a sensitized guinea pig is exposed to the sensitizing antigen, it develops a systemic anaphylactic response characterized by increased pulmonary resistance and decreased dynamic compliance (CDYN). Pulmonary resistance is a measure of the changes in transpulmonary pressure and respiratory flow. Dynamic compliance is an expression of the relative changes in tidal volume and transpulmonary pressure. In this model, dynamic compliance is used to measure changes in the elastic propertie of the small airways and pulmonary resistance to measure constrictive responses of the large airways. In human asthma, small airway changes appear to be more closely related to the pathogenesis of disease. Thus, dynamic compliance effects will be weighted more heavily in our analysis of the changes produced by drugs. In the presence of mepyramine, the effects of histamine are blocked. The observed pulmonary effects are thought to be largely leukotriene mediated. In the guinea pig, thromboxanes may also be involved (1,2) and might augment the leukotriene response. Since leukotrienes are not preformed mediators and their effects are slow in onset, in the absence of the histamine effect, a bronchospasm is not seen until approximately 1.5-3 minutes after antigen administration. However, the leukotriene-mediated response is long lasting.\nAnimals: Male Hartley strain guinea pigs, weighing between 200 and 250 g on delivery, were used. The animals were supplied by the Charles River Co., Wilmington, MA.\nSensitization Procedure: Ovalbumin (2× recrystallized, Miles Laboratories Ltd.) is dissolved (0.2 mg/ml) in saline. The guinea pigs are given a single intraperitoneal injection of 0.5 ml of the stock solution to sensitize them. The animals are maintained normally for four to six weeks before use.\nAnesthesia: Surgical anesthesia is induced by giving an IP injection of valium, 5 mg/kg, followed immediately by Innovar-Vet (Pitman-More), 0.7 ml/kg (IM). Each ml of Innovar-Vet contains 0.4 mg fentanyl, 20 mg droperidol, 1.8 mg methylparaben, and 0.2 mg propylparaben.\nSurgical Preparation: The anesthetized guinea pig is shaved in the ventral neck region and on the right side of the thorax and affixed supine to a dissecting board. A midline incision is made in the neck and the trachea is exposed. The jugular vein is cannulated with PE 50 tubing to administer drugs and antigen. The trachea is cannulated with PE 240 tubing. If the protocol required measuring blood pressure, the carotid artery is isolated and cannulated with PE 50 tubing. A spear-like cannula is then inserted into the thorax to measure transpulmonary pressure. Needle electrodes are inserted into the musculature of each leg to record electrocardiograms.\nPulmonary Mechanics Methods: The tracheal cannula is connected inline to a Fleisch 000 pneumotachograph (factor calibration 10 cm H2 O=22.2 ml/sec) and a Validyne differential pressure transducer, to measure respiratory flow. Transpulmonary pressure is measured by connecting one side of a Validyne pressure transducer to the side arm of the tracheal cannula and the other side to the cannula inserted into the thorax at approximately the 5th intercostal space.\nThe pressure and flow signals are fed into Validyne preamplifiers and then transmitted to a pulmonary mechanics computer (Buxco). […]", "units": {"SRS-PIG, percent inhibition (CDYN)": "%"}, "values": [{"compound": "O=C(O)c1ccccc1-c1ccccc1C(=O)Nc1ccc(CCCc2ccc(Cl)c(Cl)c2)cc1", "note": "[Example 1, [1,1'-Biphenyl]-2-carboxylic acid, 2'-[[[4-[3-(3,4-dichlorophenyl)propyl]phenyl]amino]carbonyl]-]", "SRS-PIG, percent inhibition (CDYN)": 51}, {"compound": "O=C(O)c1ccccc1-c1ccccc1C(=O)Nc1ccc(OCCCc2ccccc2)cc1", "note": "[Example 2]", "SRS-PIG, percent inhibition (CDYN)": 64}, {"compound": "O=C(O)c1ccccc1-c1ccccc1C(=O)Nc1ccc(CCc2ccc(Cl)c(Cl)c2)cc1", "note": "[Example 3, [1,1'-Biphenyl]-2-carboxylic acid, 2'-[[[4-[2-(3,4-dichlorophenyl)ethyl]phenyl]amino]carbonyl]-]", "SRS-PIG, percent inhibition (CDYN)": 16}, {"compound": "O=C(O)c1ccccc1-c1ccccc1C(=O)Nc1cccc(CCc2ccc(Cl)c(Cl)c2)c1", "note": "[Example 4, [1,1'-Biphenyl]-2-carboxylic acid, 2'-[[[3-[2-(3,4-dichlorophenyl)ethyl]phenyl]amino]carbonyl]-]", "SRS-PIG, percent inhibition (CDYN)": 3}, {"compound": "O=C(O)c1ccccc1-c1ccccc1C(=O)Nc1ccc(CCCc2ccccc2)cc1", "note": "[Example 16, [1,1'-Biphenyl]-2-carboxylic acid, 2'-[[[4-(3-phenylpropyl]phenyl]amino]carbonyl]-]", "SRS-PIG, percent inhibition (CDYN)": 33}, {"compound": "O=C(O)c1ccccc1-c1ccccc1C(=O)Nc1ccc(CCCCCc2ccccc2)cc1", "note": "[Example 21, [1,1'-Biphenyl]-2-carboxylic acid, 2'-[[[4-(5-phenylpentyl)phenyl]amino]carbonyl]-]", "SRS-PIG, percent inhibition (CDYN)": 21}]}]}
